A value given as a limit tells only on which side of the number the result lay.

For the assay, the target named is NS3 (Hepatitis C virus, UniProt A3EZJ3). The assay can be described thus: Binding affinity against Hepatitis C virus NS3 protease. More on the design: species or system Hepacivirus hominis.
NS3, sequence (A3EZJ3 whole entry): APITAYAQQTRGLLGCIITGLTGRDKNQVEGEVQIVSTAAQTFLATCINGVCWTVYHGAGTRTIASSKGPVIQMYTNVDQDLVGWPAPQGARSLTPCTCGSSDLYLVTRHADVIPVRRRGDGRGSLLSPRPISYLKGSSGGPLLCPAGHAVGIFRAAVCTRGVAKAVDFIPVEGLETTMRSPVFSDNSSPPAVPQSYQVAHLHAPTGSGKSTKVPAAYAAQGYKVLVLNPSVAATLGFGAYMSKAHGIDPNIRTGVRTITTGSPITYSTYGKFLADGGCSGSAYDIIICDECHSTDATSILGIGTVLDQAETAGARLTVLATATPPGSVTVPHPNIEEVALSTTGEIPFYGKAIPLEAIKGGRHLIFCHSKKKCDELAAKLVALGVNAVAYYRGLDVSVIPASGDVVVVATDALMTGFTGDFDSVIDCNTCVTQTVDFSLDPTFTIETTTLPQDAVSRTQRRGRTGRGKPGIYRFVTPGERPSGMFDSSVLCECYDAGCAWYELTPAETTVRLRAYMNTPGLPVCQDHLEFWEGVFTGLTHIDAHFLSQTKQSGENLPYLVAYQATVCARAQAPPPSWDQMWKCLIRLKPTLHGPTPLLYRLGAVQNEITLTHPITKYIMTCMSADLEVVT
Consider `CCCN(NC(=O)[C@H]1CCCN1C(=O)[C@@H](NC(=O)[C@@H](NC(=O)[C@H](CC(=O)O)NC(=O)[C@H](CCC(=O)O)NC(=O)[C@@H](NC(=O)[C@H](CC(=O)O)NC(C)=O)[C@@H](C)O)C(C)C)C(C)C)C(=O)c1cc([N+](=O)[O-])cc([N+](=O)[O-])c1`, for which the Ki (as a rule, the dissociation constant of the complex between target and ligand, obtained from inhibition or displacement) was greater than 100 µM.

In the case of `CCCN(NC(=O)[C@H]1CCCN1C(=O)[C@@H](NC(=O)[C@@H](NC(=O)[C@H](CC(=O)O)NC(=O)[C@H](CCC(=O)O)NC(=O)[C@@H](NC(=O)[C@H](CC(=O)O)NC(C)=O)[C@@H](C)O)C(C)C)C(C)C)C(=O)Sc1ccccc1`, the affinity, expressed as Ki, was 160 µM. In turn, `CCCN(NC(=O)[C@H]1CCCN1C(=O)[C@@H](NC(=O)[C@@H](NC(=O)[C@H](CC(=O)O)NC(=O)[C@H](CCC(=O)O)NC(=O)[C@@H](NC(=O)[C@H](CC(=O)O)NC(C)=O)[C@@H](C)O)C(C)C)C(C)C)C(=O)c1ccc(C#N)cc1` displayed a Ki greater than 100 µM.

With `CCCN(NC(=O)[C@H]1CCCN1C(=O)[C@@H](NC(=O)[C@@H](NC(=O)[C@H](CC(=O)O)NC(=O)[C@H](CCC(=O)O)NC(=O)[C@@H](NC(=O)[C@H](CC(=O)O)NC(C)=O)[C@@H](C)O)C(C)C)C(C)C)C(=O)N[C@@H](CO)C(=O)N[C@@H](CCSC)C(=O)N[C@@H](CO)C(=O)O`, the Ki was 200 µM.

In turn, `CCCN(NC(=O)[C@H]1CCCN1C(=O)[C@@H](NC(=O)[C@@H](NC(=O)[C@H](CC(=O)O)NC(=O)[C@H](CCC(=O)O)NC(=O)[C@@H](NC(=O)[C@H](CC(=O)O)NC(C)=O)[C@@H](C)O)C(C)C)C(C)C)C(=O)Oc1ccccc1` showed a Ki of 8 µM. In the case of `CCCN(NC(=O)[C@H]1CCCN1C(=O)[C@@H](NC(=O)[C@@H](NC(=O)[C@H](CC(=O)O)NC(=O)[C@H](CCC(=O)O)NC(=O)[C@@H](NC(=O)[C@H](CC(=O)O)NC(C)=O)[C@@H](C)O)C(C)C)C(C)C)C(=O)c1c(F)c(F)c(F)c(F)c1F` it was greater than 100 µM; in that of `CCCN(NC(=O)[C@H]1CCCN1C(=O)[C@@H](NC(=O)[C@@H](NC(=O)[C@H](CC(=O)O)NC(=O)[C@H](CCC(=O)O)NC(=O)[C@@H](NC(=O)[C@H](CC(=O)O)NC(C)=O)[C@@H](C)O)C(C)C)C(C)C)C(=O)OCc1ccc([N+](=O)[O-])cc1`, 45 µM.

Regarding `CCCN(NC(=O)[C@H]1CCCN1C(=O)[C@@H](NC(=O)[C@@H](NC(=O)[C@H](CC(=O)O)NC(=O)[C@H](CCC(=O)O)NC(=O)[C@@H](NC(=O)[C@H](CC(=O)O)NC(C)=O)[C@@H](C)O)C(C)C)C(C)C)C(=O)CC`, the Ki was greater than 100 µM. As for `CCCCC(=O)N(CCC)NC(=O)[C@H]1CCCN1C(=O)[C@@H](NC(=O)[C@@H](NC(=O)[C@H](CC(=O)O)NC(=O)[C@H](CCC(=O)O)NC(=O)[C@@H](NC(=O)[C@H](CC(=O)O)NC(C)=O)[C@@H](C)O)C(C)C)C(C)C`, the figure is greater than 100 µM. As for `CCCN(NC(=O)[C@H]1CCCN1C(=O)[C@@H](NC(=O)[C@@H](NC(=O)[C@H](CC(=O)O)NC(=O)[C@H](CCC(=O)O)NC(=O)[C@@H](NC(=O)[C@H](CC(=O)O)NC(C)=O)[C@@H](C)O)C(C)C)C(C)C)C(=O)C(=O)OCC`, the figure is greater than 100 µM; as for `CCCN(NC(=O)[C@H]1CCCN1C(=O)[C@@H](NC(=O)[C@@H](NC(=O)[C@H](CC(=O)O)NC(=O)[C@H](CCC(=O)O)NC(=O)[C@@H](NC(=O)[C@H](CC(=O)O)NC(C)=O)[C@@H](C)O)C(C)C)C(C)C)C(=O)CCl`, greater than 100 µM. In the case of `CCCN(NC(=O)[C@H]1CCCN1C(=O)[C@@H](NC(=O)[C@@H](NC(=O)[C@H](CC(=O)O)NC(=O)[C@H](CCC(=O)O)NC(=O)[C@@H](NC(=O)[C@H](CC(=O)O)NC(C)=O)[C@@H](C)O)C(C)C)C(C)C)C(=O)c1ccc([N+](=O)[O-])cc1` it was greater than 100 µM; in that of `CSCC[C@H](NC(=O)[C@H](CO)NC(=O)NNC(=O)[C@H]1CCCN1C(=O)[C@@H](NC(=O)[C@@H](NC(=O)[C@H](CC(=O)O)NC(=O)[C@H](CCC(=O)O)NC(=O)[C@@H](NC(=O)[C@H](CC(=O)O)NC(C)=O)[C@@H](C)O)C(C)C)C(C)C)C(=O)N[C@@H](CO)C(=O)N[C@@H](Cc1ccc(O)cc1)C(=O)N[C@H](C(=O)N[C@@H](Cc1c[nH]c2ccccc12)C(=O)N[C@H](C(=O)NCC(=O)N[C@@H](CCCCN)C(=O)O)[C@@H](C)O)[C@@H](C)O`, greater than 200 µM. `CCCN(NC(=O)[C@H]1CCCN1C(=O)[C@@H](NC(=O)[C@@H](NC(=O)[C@H](CC(=O)O)NC(=O)[C@H](CCC(=O)O)NC(C)=O)C(C)C)C(C)C)C(=O)N[C@@H](CO)C(=O)N[C@@H](CCSC)C(=O)N[C@@H](CO)C(=O)N[C@@H](Cc1ccc(O)cc1)C(=O)N[C@H](C(=O)N[C@@H](Cc1c[nH]c2ccccc12)C(=O)N[C@H](C(=O)NCC(=O)N[C@@H](CCCCN)C(=O)O)[C@@H](C)O)[C@@H](C)O` gave a Ki of 20 µM. As for `CCCN(NC(=O)[C@H]1CCCN1C(=O)[C@@H](NC(=O)[C@@H](NC(=O)[C@H](CC(=O)O)NC(=O)[C@H](CCC(=O)O)NC(=O)[C@@H](NC(=O)[C@H](CC(=O)O)NC(C)=O)[C@@H](C)O)C(C)C)C(C)C)C(=O)c1ccc(C(F)(F)F)cc1`, the Ki is greater than 100 µM.

Regarding `CCCN(NC(=O)[C@H]1CCCN1C(=O)[C@@H](NC(=O)[C@@H](NC(=O)[C@H](CC(=O)O)NC(=O)[C@H](CCC(=O)O)NC(=O)[C@@H](NC(=O)[C@H](CC(=O)O)NC(C)=O)[C@@H](C)O)C(C)C)C(C)C)C(=O)Oc1ccc(Cl)cc1`, affinity was put at a Ki of 16 µM. In the case of `CCCN(NC(=O)[C@H]1CCCN1C(=O)[C@@H](NC(=O)[C@@H](NC(=O)[C@H](CC(=O)O)NC(=O)[C@H](CCC(=O)O)NC(=O)[C@@H](NC(=O)[C@H](CC(=O)O)NC(C)=O)[C@@H](C)O)C(C)C)C(C)C)C(C)=O` it was greater than 100 µM; in that of `CCCN(NC(=O)[C@H]1CCCN1C(=O)[C@@H](NC(=O)[C@@H](NC(=O)[C@H](CC(=O)O)NC(=O)[C@H](CCC(=O)O)NC(=O)[C@@H](NC(=O)[C@H](CC(=O)O)NC(C)=O)[C@@H](C)O)C(C)C)C(C)C)S(=O)(=O)CCl`, greater than 100 µM; in that of `CCN(NC(=O)[C@H]1CCCN1C(=O)[C@@H](NC(=O)[C@@H](NC(=O)[C@H](CC(=O)O)NC(=O)[C@H](CCC(=O)O)NC(=O)[C@@H](NC(=O)[C@H](CC(=O)O)NC(C)=O)[C@@H](C)O)C(C)C)C(C)C)C(=O)Oc1ccc([N+](=O)[O-])cc1`, greater than 100 µM. `CCCN(NC(=O)[C@H]1CCCN1C(=O)[C@@H](NC(=O)[C@@H](NC(=O)[C@H](CC(=O)O)NC(=O)[C@H](CCC(=O)O)NC(C)=O)C(C)C)C(C)C)C(=O)N[C@@H](CO)C(=O)N[C@@H](CCSC)C(=O)N[C@@H](CO)C(N)=O` registered a Ki of 200 µM. As for `CCCN(NC(=O)[C@H]1CCCN1C(=O)[C@@H](NC(=O)[C@@H](NC(=O)[C@H](CC(=O)O)NC(C)=O)C(C)C)C(C)C)C(=O)Oc1ccc([N+](=O)[O-])cc1`, the figure is 7 µM; as for `CCCN(NC(=O)[C@H]1CCCN1C(=O)[C@@H](NC(=O)[C@@H](NC(=O)[C@H](CC(=O)O)NC(=O)[C@H](CCC(=O)O)NC(=O)[C@@H](NC(=O)[C@H](CC(=O)O)NC(C)=O)[C@@H](C)O)C(C)C)C(C)C)C(=O)C(F)(F)F`, greater than 100 µM; as for `CCCN(NC(=O)[C@H]1CCCN1C(=O)[C@@H](NC(=O)[C@@H](NC(=O)[C@H](CC(=O)O)NC(=O)[C@H](CCC(=O)O)NC(=O)[C@@H](NC(=O)[C@H](CC(=O)O)NC(C)=O)[C@@H](C)O)C(C)C)C(C)C)C(=O)OCC(Cl)(Cl)Cl`, 14 µM. `CCCN(NC(=O)[C@H]1CCCN1C(=O)[C@@H](NC(=O)[C@@H](NC(=O)[C@H](CC(=O)O)NC(=O)[C@H](CCC(=O)O)NC(C)=O)C(C)C)C(C)C)C(=O)Oc1ccc([N+](=O)[O-])cc1` had a Ki of 6 µM.
